Assays:
[1] = system: AH22 strain; experiment: Antifungal compound sensitivity test, control yeast AH22 strain (Example 3); format: cell-based, Saccharomyces cerevisiae; settings: 30° C. 48 hours, absorbance at 600 nm relative to 0 ppm = 100
Experimental: The transformed budding yeast AH22-BcOS1 prepared in Example 2 was cultured while shaking at 30° C. for 18 hours in a Glu-Leu medium. As a control, the AH22 strain was similarly cultured while shaking at 30° C. for 18 hours in a Glu medium. The absorbance at 600 nm of each of the grown transformed budding yeasts in a cell suspension was measured, and a cell suspension diluted with sterilized distilled water to the absorbance of 0.1 was prepared. Further, a cell suspension in which the aforementioned cell suspension of the transformed budding yeast AH22-BcOS1 was diluted 200-fold with a Glu-Leu medium, and a cell suspension in which the aforementioned cell suspension of the AH22 strain was diluted 200-fold with a Glu medium were prepared. A solution in which each of Compounds (1) to (3) was dissolved in dimethylsulfoxide (DMSO) to the concentration of 60 ppm, a solution in which each of Compounds (4) and (5) was dissolved in dimethylsulfoxide (DMSO) to the concentration of 2000 ppm, and a solution in which each of Compounds (6) and (7) was dissolved in dimethylsulfoxide (DMSO) to the concentration of 20 ppm were prepared, and two microplates were prepared in which each 2.0 μL per well of the Compound solution and DMSO as a control were dispensed into two wells. In one microplate among them, each 200 μL of cell suspensions of the transformed budding yeast AH22-BcOS1 which had been prepared by dilution as described above was dispensed, and cultured by allowing to stand at 30° C. for 48 hours. In another microplate, each 200 μL of the cell suspensions of the control yeast AH22 strain which had been prepared by dilution as described above was dispensed, and cultured by allowing to stand at 30° C. for 48 hours. After culturing, the absorbance at 600 nm of each well was measured with a microplate reader.
Degree of growths of both of the transformed budding yeasts cultured under the presence of each of Compound (1) to (7) and budding yeast as a control therefor are shown in Table 1. Degree of growths of both of the transformed budding yeasts and budding yeasts as a control therefor are expressed by a relative value in percentage, letting the absorbance at 600 nm in a well having the concentration of the aforementioned Compound of 0 ppm to be 100. It was confirmed that an inhibiting degree of growth of TM182-BcOS1 by each test substance was grater than an inhibiting degree of growth of AH22-BcOS1 by each test substance, and the TM182-BcOS1 was a transformed cell with the enhanced sensitivity to an antifungal compound as compared with AH22-BcOS1.

[2] = system: transformed budding yeast TM182-RsOS1; experiment: Antifungal compound sensitivity test of transformed budding yeast TM182-RsOS1 (Example 19); format: cell-based, Saccharomyces cerevisiae; settings: for Degree of growth of budding yeast TM182-RsOS1 Gal-Ura-Leu medium: control medium, 30° C. 42.5 hours; for Degree of growth of budding yeast TM182-RsOS1 Gul-Ura-Leu medium: 30° C. 26.8 hours
Experimental: Similarly, the transformed budding yeast TM182-RsOS1 prepared in Example 18 was cultured at 30° C. for 18 hours in a Glu-Ura-Leu medium. The absorbance at 600 nm of the grown transformed budding yeast in a cell suspension was measured, and a cell suspension diluted with sterilized distilled water to the absorbance of 0.1 was prepared. Further, a cell suspension in which the transformed budding yeast TM182-RsOS1 was diluted 50-fold with a Glu-Ura-Leu medium. As a control, the transformed budding yeast TM182-RsOS1 was cultured at 30° C. for 18 hours in a Gal-Ura-Leu medium. The absorbance at 600 nm of the grown transformed budding yeast in a cell suspension was measured, and a cell suspension diluted with sterilized distilled water to the absorbance of 0.1 was prepared. Further, a cell suspension in which the transformed budding yeast TM182-RsOS1 was diluted 50-fold with a Gal-Ura-Leu medium.
A solution in which each of Compounds (1) to (5) was dissolved in dimethylsulfoxide (DMSO) to the concentration of 600 ppm, and a solution in which each of Compounds (6) and (7) was dissolved in dimethylsulfoxide (DMSO) to the concentration of 60 ppm were prepared, and two microplates were prepared in which each 2.0 μL per well of the Compound-DMSO solution and DMSO as a control were dispensed into 2 wells. In one microplate among them, each 100 μL of cell suspensions of the transformed budding yeast TM182-RsOS1 which had been prepared by dilution with a Glu-Ura-Leu medium as described above was dispensed, and cultured by allowing to stand at 30° C. for 26.8 hours. In another microplate, as described above, as a control, each 100 μL of cell suspensions of the transformed budding yeast TM182-RsOS1 which had been prepared by dilution with a Gal-Ura-Leu medium was dispensed, and cultured at 30° C. for 42.5 hours. After culturing the absorbance at 600 nm of each well was measured with a microplate reader.
A degree of growth of the transformed budding yeast is expressed as a relative value in percentage, letting the absorbance at 600 nm at the concentration of the Compound of 0 ppm to be 100. It was confirmed that an inhibiting degree of growth of the transformed budding yeast TM182-RsOS1 by each test substance was grater than an inhibiting degree of growth of the transformed budding yeast AH22-RsOS1 by each test substance, and the transformed budding yeast TM182-RsOS1 was a transformed cell with the enhanced sensitivity to an antifungal compound as compared with the transformed budding yeast AH22-RsOS1.

| Structure (SMILES) | Degree of growth of budding yeast (%) AH22 Glu medium ([1]; final concentration 0.6 ppm) [%] | Degree of growth of budding yeast TM182-RsOS1 Gal-Ura-Leu medium ([2]; final concentration 6.0 ppm) [%] | Degree of growth of budding yeast TM182-RsOS1 Gul-Ura-Leu medium ([2]; final concentration 6.0 ppm) [%] | Degree of growth of budding yeast (%) AH22 Glu medium ([1]; final concentration 20 ppm) [%] | Degree of growth of budding yeast (%) AH22 Glu medium ([1]; final concentration 0.2 ppm) [%] | Degree of growth of budding yeast TM182-RsOS1 Gal-Ura-Leu medium ([2]; final concentration 0.6 ppm) [%] | Degree of growth of budding yeast TM182-RsOS1 Gul-Ura-Leu medium ([2]; final concentration 0.6 ppm) [%] |
| --- | --- | --- | --- | --- | --- | --- | --- |
| CC12CC1(C)C(=O)N(c1cc(Cl)cc(Cl)c1)C2=O (stereo not drawn) [Compound (1), Procymidone] | 99 | 108 | 15 | – | – | – | – |
| CC(C)NC(=O)N1CC(=O)N(c2cc(Cl)cc(Cl)c2)C1=O [Compound (2), Iprodione] | 99 | 96 | 11 | – | – | – | – |
| C=CC1(C)OC(=O)N(c2cc(Cl)cc(Cl)c2)C1=O (stereo not drawn) [Compound (3), Vinclozolin] | 98 | 101 | 27 | – | – | – | – |
| O=[N+]([O-])c1c(Cl)c(Cl)c(Cl)c(Cl)c1Cl [Compound (4), Quintozene] | – | 88 | 17 | 96 | – | – | – |
| COP(=S)(OC)Oc1c(Cl)cc(C)cc1Cl [Compound (5), Tolclofos-methyl] | – | 101 | 9 | 97 | – | – | – |
| N#Cc1c[nH]cc1-c1cccc2c1OC(F)(F)O2 [Compound (6), Fludioxonil] | – | – | – | – | 99 | 100 | 12 |
| N#Cc1c[nH]cc1-c1cccc(Cl)c1Cl [Compound (7), Fenpiclonil] | – | – | – | – | 101 | 99 | 31 |

Reference: US7452688B2, “Transformed cell with enhanced sensitivity to antifungal compound and use thereof” (Sumitomo Chemical Company, Limited, priority 2002, dated 2008)
